7 compounds from ChEMBL document CHEMBL3867477 (Bioorg Med Chem Lett, 2016) can be followed below.

Chain of Cytochrome P450 3A4 (P08684 whole entry): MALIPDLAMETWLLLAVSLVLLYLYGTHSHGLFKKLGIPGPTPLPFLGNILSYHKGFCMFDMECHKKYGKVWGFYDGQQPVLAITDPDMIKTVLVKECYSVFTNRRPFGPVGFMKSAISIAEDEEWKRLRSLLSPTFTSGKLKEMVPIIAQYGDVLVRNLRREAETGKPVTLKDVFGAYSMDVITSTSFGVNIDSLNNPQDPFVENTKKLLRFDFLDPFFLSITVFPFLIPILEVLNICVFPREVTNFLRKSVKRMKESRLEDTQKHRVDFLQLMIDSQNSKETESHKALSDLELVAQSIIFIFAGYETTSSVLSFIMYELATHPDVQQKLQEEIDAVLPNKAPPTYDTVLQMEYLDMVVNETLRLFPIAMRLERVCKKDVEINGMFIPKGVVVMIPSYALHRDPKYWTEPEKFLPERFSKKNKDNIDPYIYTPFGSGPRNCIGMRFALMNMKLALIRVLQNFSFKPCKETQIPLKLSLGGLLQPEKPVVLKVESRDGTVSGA

Tested on in the first data set: not listed separately
The data set can be described thus: Solubility of the compound. Format: physicochemical.
Conditions: not given; call rule not given here
For the compound `O=C(c1cccc(-n2ccnn2)c1)N1CCC(F)(F)[C@@H](Oc2ccc3ccccc3n2)C1`, the solubility entry is reported as “Soluble”.

`O=C(c1ccc(F)cc1)N1CCC(F)(F)C(Oc2ccc3ccccc3n2)C1` (racemic): the solubility result is “Insoluble”.

Consider `COc1ccccc1C(=O)N1CCC(F)(F)C(Oc2ccc3ccccc3n2)C1` (racemic), for which the solubility result is listed as “Insoluble”.

In the case of `O=C(c1ccccc1-n1nccn1)N1CCC(F)(F)C(Oc2ncc3ccccc3n2)C1` (stereo not given), the solubility entry is on record as “Insoluble”.

`O=C(c1ccccc1-n1nccn1)N1CCC(F)(F)C(Oc2ccnc3ccccc23)C1` (stereo not given): the solubility result is on record as “Insoluble”.

Regarding `O=C(c1cccc(F)c1)N1CCC(F)(F)C(Oc2ccc3ccccc3n2)C1` (racemic), the solubility result is recorded as “Insoluble”.

Regarding `O=C(c1ccccc1-n1nccn1)N1CCC(F)(F)C(Oc2nc3ccccc3s2)C1` (stereo not given), the solubility result was “Insoluble”.

Another data set concerns the target T1, Orexin receptor type 2 (Homo sapiens, UniProt O43614).
T1 sequence (O43614 whole entry): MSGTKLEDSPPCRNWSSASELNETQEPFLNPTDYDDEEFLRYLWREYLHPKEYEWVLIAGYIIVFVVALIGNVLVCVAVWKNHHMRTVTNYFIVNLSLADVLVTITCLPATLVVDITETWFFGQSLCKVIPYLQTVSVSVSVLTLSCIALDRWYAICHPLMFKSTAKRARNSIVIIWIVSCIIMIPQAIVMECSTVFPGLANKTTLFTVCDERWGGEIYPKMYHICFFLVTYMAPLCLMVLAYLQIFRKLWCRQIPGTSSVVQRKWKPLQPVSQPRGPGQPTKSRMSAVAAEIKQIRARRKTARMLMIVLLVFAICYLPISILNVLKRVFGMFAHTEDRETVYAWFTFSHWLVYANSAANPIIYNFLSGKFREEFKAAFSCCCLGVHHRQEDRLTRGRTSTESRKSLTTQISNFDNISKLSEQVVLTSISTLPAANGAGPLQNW
In words: Displacement of (2S)-N-(2-pyrrol-1-ylphenyl)-1-[2-[1-(tritritiomethyl)benzimidazol-2-yl]sulfanylacetyl]pyrrolidine-2-carboxamide from human OX2 receptor expressed on CHO cell membrane measured after 3 hrs by TopCount method. Format: cell membranes.
Conditions: not given
By Ki is commonly meant a measure of affinity in units of concentration, obtained from inhibition or displacement. Read a low Ki as higher affinity. As for `O=C(c1cccc(-n2ccnn2)c1)N1CCC(F)(F)[C@@H](Oc2ccc3ccccc3n2)C1`, the affinity corresponds to a Ki of 4310 nM.

Regarding `O=C(c1ccc(F)cc1)N1CCC(F)(F)C(Oc2ccc3ccccc3n2)C1` (racemic), the Ki is greater than 4380 nM.

In turn, `COc1ccccc1C(=O)N1CCC(F)(F)C(Oc2ccc3ccccc3n2)C1` (racemic) returned a Ki greater than 2630 nM.

In turn, `O=C(c1ccccc1-n1nccn1)N1CCC(F)(F)C(Oc2ncc3ccccc3n2)C1` (stereo not given) registered a Ki of 1470 nM.

`O=C(c1ccccc1-n1nccn1)N1CCC(F)(F)C(Oc2ccnc3ccccc23)C1` (stereo not given) registered a Ki of 277 nM.

As to `O=C(c1cccc(F)c1)N1CCC(F)(F)C(Oc2ccc3ccccc3n2)C1` (racemic), the Ki was greater than 4380 nM.

Compound `O=C(c1ccccc1-n1nccn1)N1CCC(F)(F)C(Oc2nc3ccccc3s2)C1` (stereo not given) yielded a Ki of 220 nM.

Another data set deals with Voltage-dependent L-type calcium channel subunit alpha-1C (Homo sapiens, UniProt Q13936). The data set can be described thus: Inhibition of Cav1.2 (unknown origin).
Chain of Voltage-dependent L-type calcium channel subunit alpha-1C (Q13936 whole entry): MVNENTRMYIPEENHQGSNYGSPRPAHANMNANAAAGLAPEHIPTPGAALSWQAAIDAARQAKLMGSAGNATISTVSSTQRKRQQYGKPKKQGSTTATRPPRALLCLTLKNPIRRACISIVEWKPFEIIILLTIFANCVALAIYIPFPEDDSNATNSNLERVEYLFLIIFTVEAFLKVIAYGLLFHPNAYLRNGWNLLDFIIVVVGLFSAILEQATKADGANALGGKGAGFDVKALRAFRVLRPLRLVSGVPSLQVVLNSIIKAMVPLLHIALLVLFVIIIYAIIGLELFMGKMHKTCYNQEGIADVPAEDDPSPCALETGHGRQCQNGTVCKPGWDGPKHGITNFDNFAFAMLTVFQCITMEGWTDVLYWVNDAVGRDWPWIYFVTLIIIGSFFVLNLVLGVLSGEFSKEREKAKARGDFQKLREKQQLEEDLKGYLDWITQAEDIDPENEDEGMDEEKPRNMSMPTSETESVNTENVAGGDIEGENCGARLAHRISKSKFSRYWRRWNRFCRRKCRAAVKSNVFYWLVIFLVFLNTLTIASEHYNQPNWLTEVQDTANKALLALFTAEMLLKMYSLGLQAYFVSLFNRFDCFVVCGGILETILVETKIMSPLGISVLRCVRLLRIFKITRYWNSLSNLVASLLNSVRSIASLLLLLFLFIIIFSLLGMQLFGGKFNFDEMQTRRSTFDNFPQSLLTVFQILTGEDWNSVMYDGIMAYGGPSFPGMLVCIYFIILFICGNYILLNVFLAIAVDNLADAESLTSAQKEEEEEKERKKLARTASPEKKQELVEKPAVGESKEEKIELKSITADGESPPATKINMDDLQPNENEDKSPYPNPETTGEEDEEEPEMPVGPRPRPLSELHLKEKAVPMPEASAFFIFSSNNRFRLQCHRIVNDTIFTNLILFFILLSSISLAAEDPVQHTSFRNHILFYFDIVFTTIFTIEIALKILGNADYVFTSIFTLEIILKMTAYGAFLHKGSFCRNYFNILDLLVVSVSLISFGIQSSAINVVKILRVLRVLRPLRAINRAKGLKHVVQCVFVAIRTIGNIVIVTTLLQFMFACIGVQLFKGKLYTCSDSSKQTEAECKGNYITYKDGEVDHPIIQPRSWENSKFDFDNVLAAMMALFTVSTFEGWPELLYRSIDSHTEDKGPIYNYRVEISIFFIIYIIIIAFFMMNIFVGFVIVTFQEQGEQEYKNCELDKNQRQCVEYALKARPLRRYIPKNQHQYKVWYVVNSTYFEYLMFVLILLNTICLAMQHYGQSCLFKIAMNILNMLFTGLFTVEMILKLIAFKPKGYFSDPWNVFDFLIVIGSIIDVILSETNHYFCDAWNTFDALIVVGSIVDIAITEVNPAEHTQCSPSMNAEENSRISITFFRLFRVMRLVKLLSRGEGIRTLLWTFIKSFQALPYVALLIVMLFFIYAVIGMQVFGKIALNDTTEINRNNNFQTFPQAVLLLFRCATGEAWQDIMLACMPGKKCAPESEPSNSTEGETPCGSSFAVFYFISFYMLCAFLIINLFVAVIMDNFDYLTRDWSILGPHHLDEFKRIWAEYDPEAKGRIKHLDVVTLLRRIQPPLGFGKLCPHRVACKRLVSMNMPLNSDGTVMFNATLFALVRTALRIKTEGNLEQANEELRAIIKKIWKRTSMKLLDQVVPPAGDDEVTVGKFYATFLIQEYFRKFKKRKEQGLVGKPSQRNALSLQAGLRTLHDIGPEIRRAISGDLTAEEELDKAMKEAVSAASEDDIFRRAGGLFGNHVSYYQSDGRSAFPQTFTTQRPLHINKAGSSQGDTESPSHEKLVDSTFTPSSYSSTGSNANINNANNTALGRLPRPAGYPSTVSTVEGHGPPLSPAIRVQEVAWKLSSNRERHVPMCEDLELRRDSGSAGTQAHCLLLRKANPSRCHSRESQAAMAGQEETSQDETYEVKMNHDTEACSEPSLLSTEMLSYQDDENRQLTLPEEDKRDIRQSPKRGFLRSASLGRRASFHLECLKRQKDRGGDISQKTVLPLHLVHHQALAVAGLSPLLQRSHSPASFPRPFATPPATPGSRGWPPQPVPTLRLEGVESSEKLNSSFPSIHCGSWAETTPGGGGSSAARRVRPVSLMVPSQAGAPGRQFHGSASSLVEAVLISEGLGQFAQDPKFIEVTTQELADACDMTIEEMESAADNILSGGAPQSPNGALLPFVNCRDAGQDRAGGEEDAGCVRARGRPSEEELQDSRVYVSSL
Conditions: not given
Turning to `O=C(c1ccc(F)cc1)N1CCC(F)(F)C(Oc2ccc3ccccc3n2)C1` (racemic), the “inhibition (INH)” value is “Active”.

On to `COc1ccccc1C(=O)N1CCC(F)(F)C(Oc2ccc3ccccc3n2)C1` (racemic), for which the “inhibition (INH)” value was “Active”.

On to `O=C(c1ccccc1-n1nccn1)N1CCC(F)(F)C(Oc2ncc3ccccc3n2)C1` (stereo not given), for which the “inhibition (INH)” value is reported as “Active”.

Take `O=C(c1ccccc1-n1nccn1)N1CCC(F)(F)C(Oc2ccnc3ccccc23)C1` (stereo not given): the “inhibition (INH)” value was “Active”.

In the case of `O=C(c1cccc(F)c1)N1CCC(F)(F)C(Oc2ccc3ccccc3n2)C1` (racemic), the “inhibition (INH)” value is reported as “Active”.

On to `O=C(c1ccccc1-n1nccn1)N1CCC(F)(F)C(Oc2nc3ccccc3s2)C1` (stereo not given), for which the “inhibition (INH)” value was “Active”.

Tested on in the next data set: not listed separately
In words: Displacement of (2S)-N-(2-phenylphenyl)-1-[2-[1-(tritritiomethyl)benzimidazol-2-yl]sulfanylacetyl]pyrrolidine-2-carboxamide from human OX1 receptor Ile408-Val mutant expressed on CHO cell membrane measured after 3 hrs by TopCount method. Format: cell membranes.
Conditions: not given
`O=C(c1cccc(-n2ccnn2)c1)N1CCC(F)(F)[C@@H](Oc2ccc3ccccc3n2)C1` yielded a Ki of 3.5 nM.

On to `O=C(c1ccc(F)cc1)N1CCC(F)(F)C(Oc2ccc3ccccc3n2)C1` (racemic), for which the Ki was 1080 nM.

Compound `COc1ccccc1C(=O)N1CCC(F)(F)C(Oc2ccc3ccccc3n2)C1` (racemic) yielded a Ki of 24 nM.

In turn, `O=C(c1ccccc1-n1nccn1)N1CCC(F)(F)C(Oc2ncc3ccccc3n2)C1` (stereo not given) had a Ki of 13 nM.

`O=C(c1ccccc1-n1nccn1)N1CCC(F)(F)C(Oc2ccnc3ccccc23)C1` (stereo not given) yielded a Ki of 7970 nM.

`O=C(c1cccc(F)c1)N1CCC(F)(F)C(Oc2ccc3ccccc3n2)C1` (racemic) displayed a Ki of 91 nM.

The compound `O=C(c1ccccc1-n1nccn1)N1CCC(F)(F)C(Oc2nc3ccccc3s2)C1` (stereo not given) came in with a Ki of 2.3 nM.

For a further data set, the target named is Cytochrome P450 2C9 (Homo sapiens, UniProt P11712). In words: Inhibition of CYP2C9 (unknown origin). Format: ADME.
Chain of Cytochrome P450 2C9 (P11712 whole entry): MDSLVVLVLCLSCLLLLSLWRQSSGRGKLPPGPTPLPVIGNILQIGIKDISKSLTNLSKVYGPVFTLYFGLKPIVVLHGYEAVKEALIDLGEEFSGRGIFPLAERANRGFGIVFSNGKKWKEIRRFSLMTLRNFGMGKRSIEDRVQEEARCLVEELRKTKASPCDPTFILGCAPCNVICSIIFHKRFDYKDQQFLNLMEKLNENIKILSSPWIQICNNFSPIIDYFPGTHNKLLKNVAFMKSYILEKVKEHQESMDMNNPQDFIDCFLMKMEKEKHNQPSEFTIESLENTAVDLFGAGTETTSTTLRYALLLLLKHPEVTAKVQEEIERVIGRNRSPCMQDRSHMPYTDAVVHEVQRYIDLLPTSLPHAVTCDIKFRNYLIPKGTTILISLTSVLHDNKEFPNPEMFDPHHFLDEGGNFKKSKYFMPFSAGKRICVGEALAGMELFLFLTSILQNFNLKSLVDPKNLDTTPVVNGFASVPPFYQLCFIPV
Conditions: not given
For the compound `O=C(c1ccc(F)cc1)N1CCC(F)(F)C(Oc2ccc3ccccc3n2)C1` (racemic), the “inhibition (INH)” value is reported as “Active”.

Turning to `COc1ccccc1C(=O)N1CCC(F)(F)C(Oc2ccc3ccccc3n2)C1` (racemic), the “inhibition (INH)” value is “Active”.

As for `O=C(c1ccccc1-n1nccn1)N1CCC(F)(F)C(Oc2ncc3ccccc3n2)C1` (stereo not given), the “inhibition (INH)” value is on record as “Active”.

For the compound `O=C(c1ccccc1-n1nccn1)N1CCC(F)(F)C(Oc2ccnc3ccccc23)C1` (stereo not given), the “inhibition (INH)” value is given as “Active”.

In the case of `O=C(c1cccc(F)c1)N1CCC(F)(F)C(Oc2ccc3ccccc3n2)C1` (racemic), the “inhibition (INH)” value is on record as “Active”.

In the case of `O=C(c1ccccc1-n1nccn1)N1CCC(F)(F)C(Oc2nc3ccccc3s2)C1` (stereo not given), the “inhibition (INH)” value is recorded as “Active”.

Tested on in a further data set: not listed separately
In words: Oral bioavailability in rat at 10 mg/kg. The format is ADME, organism-based. To be noted: in vivo.
A word on the bioavailability: it is dose-corrected exposure relative to a reference, in per cent. In the case of `O=C(c1cccc(-n2ccnn2)c1)N1CCC(F)(F)[C@@H](Oc2ccc3ccccc3n2)C1`, the bioavailability was less than 1%.

Tested on in another data set: not listed separately
In words: Drug metabolism in rat liver microsomes assessed as oxidation of banzamide.
Conditions: not given
The format is ADME. Background: Liver microsomes are a subcellular fraction often used to study metabolism.
Consider `O=C(c1cccc(-n2ccnn2)c1)N1CCC(F)(F)[C@@H](Oc2ccc3ccccc3n2)C1`, for which the Drug metabolism entry is on record as “Metabolite_Detected”.

The next data set has as its system CHO. In words: Selectivity index, ratio of Ki for human OX2 receptor expressed on CHO cell membrane to Ki for Ile408-Val variant human OX1 receptor expressed on CHO cell membrane. The format is cell-based.
Conditions: not given
Take `O=C(c1cccc(-n2ccnn2)c1)N1CCC(F)(F)[C@@H](Oc2ccc3ccccc3n2)C1`: the Ratio Ki was 1230.

Regarding `O=C(c1ccc(F)cc1)N1CCC(F)(F)C(Oc2ccc3ccccc3n2)C1` (racemic), the Ratio Ki is greater than 4.

Turning to `COc1ccccc1C(=O)N1CCC(F)(F)C(Oc2ccc3ccccc3n2)C1` (racemic), the Ratio Ki is greater than 110.

As for `O=C(c1ccccc1-n1nccn1)N1CCC(F)(F)C(Oc2ncc3ccccc3n2)C1` (stereo not given), the Ratio Ki turned out to be 113.

Turning to `O=C(c1ccccc1-n1nccn1)N1CCC(F)(F)C(Oc2ccnc3ccccc23)C1` (stereo not given), the Ratio Ki was found to be 0.035.

On to `O=C(c1cccc(F)c1)N1CCC(F)(F)C(Oc2ccc3ccccc3n2)C1` (racemic), for which the Ratio Ki was greater than 48.

With `O=C(c1ccccc1-n1nccn1)N1CCC(F)(F)C(Oc2nc3ccccc3s2)C1` (stereo not given), the Ratio Ki was 96.

Tested on in the next data set: not listed separately
In words: Intrinsic clearance in rat liver microsomes. The format is ADME. The conditions noted are these: read-out: CLH.
Consider `O=C(c1cccc(-n2ccnn2)c1)N1CCC(F)(F)[C@@H](Oc2ccc3ccccc3n2)C1`, for which the CLint scaled worked out at 1200 mL/min/kg.

The next data set addresses Cytochrome P450 3A4 (Homo sapiens, UniProt P08684). In words: Inhibition of CYP3A4 (unknown origin).
Conditions: not given
Format: ADME.
As to `O=C(c1ccc(F)cc1)N1CCC(F)(F)C(Oc2ccc3ccccc3n2)C1` (racemic), the “inhibition (INH)” value is recorded as “Active”.

In the case of `COc1ccccc1C(=O)N1CCC(F)(F)C(Oc2ccc3ccccc3n2)C1` (racemic), the “inhibition (INH)” value is recorded as “Active”.

On to `O=C(c1ccccc1-n1nccn1)N1CCC(F)(F)C(Oc2ncc3ccccc3n2)C1` (stereo not given), for which the “inhibition (INH)” value is given as “Active”.

Consider `O=C(c1ccccc1-n1nccn1)N1CCC(F)(F)C(Oc2ccnc3ccccc23)C1` (stereo not given), for which the “inhibition (INH)” value is “Active”.

Turning to `O=C(c1cccc(F)c1)N1CCC(F)(F)C(Oc2ccc3ccccc3n2)C1` (racemic), the “inhibition (INH)” value is on record as “Active”.

In the case of `O=C(c1ccccc1-n1nccn1)N1CCC(F)(F)C(Oc2nc3ccccc3s2)C1` (stereo not given), the “inhibition (INH)” value was “Active”.

Tested on in another data set: not listed separately
The data set can be described thus: Clearance in rat at 2 mg/kg, iv. Format: ADME, organism-based. To be noted: in vivo.
For orientation: clearance means the volume of plasma or blood freed of the substance per unit of time. `O=C(c1cccc(-n2ccnn2)c1)N1CCC(F)(F)[C@@H](Oc2ccc3ccccc3n2)C1` returned a clearance of 81 mL/min/kg.
